In PubChem BioAssay AID179 (DTP/NCI, 2004):
Several values for one entry are separate records, joined by “and”; a condition that tells them apart may be missing. Equal values may be shown once. Activity calls are given as the source filed them.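 Rule for the calls: active = compounds giving half or more protection of infected cells from virus-caused growth loss, again on retest; inactive = the rest.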

Test system: CEM cells HIV-1 protection, formazan growth assay
Experiment: NCI AIDS Antiviral Assay
Settings: for IC50: measured here: growth of uninfected CEM cells
Method in brief: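 Category rules: moderately active means at least 50% protection on retest, and confirmed active means 100% protection reproducibly. The underlying data came from a formazan growth assay in HIV-1-infected CEM cells.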

Structure (SMILES)	EC50 [µM]	IC50	outcome
CN(C)c1ccc(C=NCC2CCCN3CCCCC23)cc1 (configuration not stated)	> 100	> 100 µM	
c1ccc2c(c1)CCCc1cc3ccccc3nc1-2	> 55	> 55 µM	
CC(C)(Oc1ccc2c(=O)cc(-c3ccccc3)oc2c1)C(=O)Nc1c(Cl)cccc1Cl	> 11.2	> 11.2 µM	
CCOC(=O)C1(C#N)OC(=O)c2cnccc21 (configuration not stated)	> 200	> 200 µM	
COc1cccc(/C=C2\CCCCCC2=O)c1	> 200	40.7 µM	
Cc1nc2c(nc1C)C(=O)C(Cl)=C(N)C2=O			inactive
COc1cc(C(=O)n2c(=O)oc(=O)c3cc([N+](=O)[O-])ccc32)cc(OC)c1OC	> 200	> 200 µM	
O=c1ccnc(SSc2nccc(=O)[nH]2)[nH]1	> 200	> 200 µM	
O=C1CC2c3c(OCc4ccccc4)cc(OCc4ccccc4)cc3OC2O1 (configuration not stated)	> 25.7	> 25.7 µM	
Cc1cc(C)c(C2CNCc3cc4c(cc32)CNCC4c2c(C)cc(C)cc2C)c(C)c1 (configuration not stated)	> 20	2.57 µM	
NCCCN1c2ccccc2Sc2ccc(Cl)cc21	> 200	10.7 µM	
NC1CC(=O)c2c(I)sc(I)c21 (configuration not stated)	> 200	4.47 µM	
Cc1cc(S(=O)(=O)n2ccnc2Oc2ccc(N)cc2)c(SSc2cc(Cl)c(C)cc2S(=O)(=O)n2ccnc2Oc2ccc(N)cc2)cc1Cl	> 100	21.9 µM	
CC(C)(C)C1=C(Br)C(O)(C(C)(C)C)OP1(=O)c1ccccc1 (configuration not stated)	> 200	151 µM	
COc1ccc2c(O)c(-c3ccc(OC)c(OC)c3)c(=O)oc2c1			inactive
O=C(O)C1=CC(=C(c2ccc(O)c(C(=O)O)c2)c2ccc(O)c(C(=O)O)c2)C=CC1=O	> 1660	> 1660 µM	
CC1Cn2c(c(-c3ccccc3)c(=O)[nH]c2=O)O1 (configuration not stated)	> 363	> 363 µM	
CCO/C=N/c1[nH]c(C)c(Cc2ccccc2)c1C#N	> 50.1	> 50.1 µM	
CC(=O)OCC1OC(NC(=S)CCSc2nc3ccccc3c(=O)n2-c2ccccc2)C(OC(C)=O)C(OC(C)=O)C1OC(C)=O (configuration not stated)	> 200	28.2 µM	
CCOC(=O)CCNC(=O)c1cc(C)cc2c1Oc1c(cc(C)cc1C(=O)NCCC(=O)OCC)S2	> 200	29.5 µM	
CC1(C)C2=CCCC(=O)[C@@]2(C)CC[C@@H]1O			inactive
O=C1/C(=C/c2ccco2)NC(=S)N1CN1CCCCC1	> 200	32.4 µM	

Structure (SMILES)	EC50 [µM]	IC50	outcome
CCC(c1ccccc1)c1noc(CCN(CC)CC)n1 (configuration not stated)	> 200	33.9 µM	
O=Nc1c(-c2ccccc2)nc2ncccn12	> 200	2.14 µM	
COC(=O)C1=C2Nc3ccccc3C[C@@]23CCN2CCC[C@@](C(C)OC(=O)C=C(C)C)(C1)C23 (some centres not stated)	> 200	23.4 µM	
Cc1ccc(NC(=O)/C(=N/NC(=O)C[N+](C)(C)C)c2nc3ccccc3[nH]c2=O)cc1	> 186	120 µM	
O=C1C2C=CC(n3[nH]c(=O)n(Cc4ccccc4)c3=O)CC2C(=O)N1c1ccc(Br)cc1 (configuration not stated)	> 501	135 µM	
CCOC(=O)c1cc2c(cn1)[nH]c1cccc(N)c12	> 263	> 263 µM	
CCCCCCCCCCCCC(=O)NC1=C(O)c2ccccc2C(=O)C1=O			inactive
C=C1C(=O)O[C@H]2C1C[C@H](O)[C@@]1(C)OC1CC[C@@]1(C)O[C@H]21 (some centres not stated)	> 200	6.61 µM	
OC(CCNC12CC3CC(CC(C3)C1)C2)c1ccccc1 (configuration not stated)			inactive
CCOC(=O)/C(C#N)=C/c1[nH]c(C(=O)OCc2ccccc2)c(C)c1C			inactive
CCOc1ccc2nc3cc(N=Nc4ccc5c(N)c6cc(OCC)ccc6nc5c4)ccc3c(N)c2c1	> 100	20.4 µM	
COC(=O)C1=C(C)C(=O)[C@]23C(CCCC[C@H]12)C(=O)[C@H](C(=O)OC)C3C (some centres not stated)	> 200	> 200 µM	
Cn1cc2ccccc2c1-c1nc(F)nc(Oc2ccc3c(c2)CC[C@@H]2C3CC[C@@]3(C)C2C[C@H](O)[C@@H]3O)n1 (some centres not stated)	> 10	> 10 µM	
CC1(C)CCC2=C(O1)c1ccccc1C(=O)C2=O	> 200	0.912 µM and 1.07 µM	
O=C1C=C/C(=N\N=C(c2ccccc2)c2ccccc2)O1	> 200	145 µM	
Oc1cccc(C2SCc3nc4ccccc4n32)c1 (configuration not stated)	> 126	46.8 µM	
CC(C)CCCC(C)C1CCC2C3CC(OC4OC(CO)C(O)C(O)C4O)C4C[C@@H](OS(=O)(=O)O)CC[C@]4(C)C3CC[C@]12C (some centres not stated)	> 37.2	15.1 µM	
COc1cc(OC)c2ssc3c(OC)cc(OC)c4ssc1c2-c43	> 13.2	> 13.2 µM	
NC1=C(O)/C(=N/NS(=O)(=O)c2ccccc2)C(c2cccc(Cl)c2)O1 (configuration not stated)	> 661	32.4 µM	
COC1=CC2(C=CC1=O)CCC(=O)O2 (configuration not stated)	10.5	174 µM	
Cn1nc(C(N)=O)c(=O)[nH]c1=O	> 200	> 200 µM	
CCOC(=O)C(=O)Nc1c(CC)cccc1C(C)C	> 355	> 355 µM	

Structure (SMILES)	EC50 [µM]	IC50	outcome
Cc1cn(C2CC(Br)=NO2)c(=O)[nH]c1=O (configuration not stated)	> 200	34.7 µM	
CCCCCCN(N)C(=O)CC#N	> 39.8	> 39.8 µM	
CCOP(=O)(OCC)/C(C#N)=C/c1cccc([N+](=O)[O-])c1	> 813	166 µM	
Cc1cc(C)c(S(=O)(=O)N(CCCCN)OCCCN)c(C)c1	> 200	28.2 µM	
Cn1cc(NC(=O)c2nc(NC(=O)c3nc(NC(=O)/C=C/C(=O)Nc4cn(C)c(C(=O)Nc5cn(C)c(C(=O)Nc6cn(C)c(C(=O)NCCC(=N)N)n6)n5)n4)cn3C)cn2C)nc1C(=O)NCCC(=N)N	> 50.1	8.51 µM	
Cc1ncc([N+](=O)[O-])n1CCNC(=O)CCC(=O)NCCCn1ccnc1[N+](=O)[O-]	> 200	> 200 µM	
Cc1cc(-c2ccco2)c(C#N)c(=S)n1C1OC(CO)C(O)C(O)C1O (configuration not stated)	> 200	> 200 µM	
O=C(O)Cc1ccccc1	> 200	> 200 µM	
COc1c(C(C)C)cc(O)c2c1CCC1C(C)=C(C(=O)O)CCC21C (configuration not stated)	> 200	110 µM	
COc1ccc(OC)c(CCc2cc(OC)ccc2OC)c1	> 200	1.26 µM	
O=c1oc2cc(O)ccc2c(O)c1C(c1ccccc1F)c1c(O)c2ccc(O)cc2oc1=O			inactive
O=C1OC(c2cccc(C(F)(F)F)c2)(c2cccc(C(F)(F)F)c2)c2ccc3ccccc3c21			inactive
CCOC(=O)C(Cc1c(C=O)[nH]c2ccccc12)(NC(=O)c1ccccc1)C(=O)OCC			inactive
COc1cccc(C=O)c1[O-].[O]=[U](=[O])([OH2+])[OH2+]	> 79.4	39.8 µM	
COc1c(O)ccc2oc3cccc(O)c3c(=O)c12	> 200	110 µM	
CC(=O)c1c(O)ccc(O)c1-n1nc(C)c([N+](=O)[O-])c1C	> 224	> 224 µM	
Cc1c2c(c(C)n1-c1ccccc1)C(=O)N(CCCCN1CCN(c3ccccc3)CC1)C2=O	> 200	8.91 µM	
O=C(NN1C(=O)c2ccccc2C1=O)c1ccccc1Nc1ccccc1C(=O)NN1C(=O)c2ccccc2C1=O	> 200	> 200 µM	
CC1(C)Cc2cc(C(=O)O)c3c(c2C1=O)COCC3			inactive
CCCCCCCCCCCC(=O)C1=C(O)C(O)CCC1=O (configuration not stated)			inactive
O=S(=O)(C1CCCCC1)N1N=NC2CCCCC21 (configuration not stated)	> 200	> 200 µM	
CC(C)[Si](Oc1cc2c3c(ccc2c(O)c1[C@@H](C)CO[Si](C)(C)C(C)(C)C)C(C)(C)CCC3)(C(C)C)C(C)C	> 200	40.7 µM	

Structure (SMILES)	EC50 [µM]	IC50	outcome
Cn1c(=O)[nH]n(-c2ccc3ccccc3c2)c1=O	> 200	> 200 µM	
O=C1C(c2ccccc2)=[N+]([O-])c2cc([N+](=O)[O-])ccc21			inactive
COc1ccc(N2C(=O)C3c4[nH]c5ccccc5c4C4CCCCCCC4C3C2=O)cc1 (configuration not stated)	> 8.71	> 8.71 µM	
Cc1nc(C)c(C(=O)NNC(=O)Cc2ccccc2)cc1C(=O)NNC(=O)Cc1ccccc1	> 200	> 200 µM	
OCCC(N1CCOCC1)C(O)(c1ccccc1)c1ccccc1 (configuration not stated)	> 200	> 200 µM	
NC(=O)C12C3C4C1C1C2C3C41C(N)=O (configuration not stated)	> 70.8	> 70.8 µM	
NC(CSCCCO)C(=O)O (configuration not stated)			inactive
CNC(=O)c1ccc(C(=O)NCCCCCN(O)C(=O)CCC(=O)NCCCCCN(O)C(=O)CCC(=O)NCCCCCN(O)C(C)=O)c(O)c1O	> 100	69.2 µM	
C/C(=C(/C)c1ccc(O)cc1)c1ccc(O)cc1	> 200	52.5 µM	
Sc1ccc2ccccc2c1CNC1CCCCC1	> 200	28.2 µM	
COc1cc(C2C(C(=O)Nc3ccc(Cl)c(Cl)c3)=C(C)NC(C)=C2C(=O)Nc2ccc(Cl)c(Cl)c2)ccc1O	> 22.4	12.6 µM	
CCCCCCCCCCC(C)CCCCCCC(=O)OCC(COP(=O)([O-])OCC[N+](C)(C)C)OC(=O)CCCCCCC(C)CCCCCCCCCC (configuration not stated)			inactive
N#Cc1nc2ccccc2nc1N1CCN(c2ccc([N+](=O)[O-])cc2)CC1	> 200	> 200 µM	
COc1ccccc1OCC(COC(=O)Nc1ccc(C)cc1)OC(=O)Nc1ccc(C)cc1 (configuration not stated)	> 77.6	72.4 µM	
c1cnc(NCCSSCCNc2ncccn2)nc1	> 200	38 µM	
COc1ccc2c3c([nH]c2c1[N+](=O)[O-])C(C)N(Cc1ccccc1)CC3 (configuration not stated)			inactive
CC(C)N(C(C)C)P(=O)(OP(=O)(c1ccc([N+](=O)[O-])cc1)N(C(C)C)C(C)C)c1ccc([N+](=O)[O-])cc1 (configuration not stated)	> 200	151 µM	
O=C1/C(=C/c2ccccc2)N=C(c2ccccc2)N1n1c(-c2ccccc2)nc2ccccc2c1=O	> 200	75.9 µM	
CC1(C)CC(/C=C\c2coc3ccc(Cl)cc3c2=O)=C(C#N)C(=O)O1	> 7.59	> 7.59 µM	
C=CC[C@@]12CCC(=O)C=C1CCCC2=O			inactive
C(#CP(c1ccccc1)c1ccccc1)P(C#CP(c1ccccc1)c1ccccc1)c1ccccc1			inactive
